Measurements reported in ChEMBL document CHEMBL4011641, “Prodrugs of Pyrazolo[3,4-d]pyrimidines: From Library Synthesis to Evaluation as Potential Anticancer Agents in an Orthotopic Glioblastoma Model” (J Med Chem, 2017).
≈ marks a conversion by molar mass, not a printed value.

Tests used:
[1] = Half life in PBS buffer at 100 uM at pH 7.4 by UV/LC-MS analysis; format: physicochemical
[2] = Half life in methanol at 100 uM by UV/LC-MS analysis; format: physicochemical
[3] = Drug uptake in cytoplasm of human U87 cells at 20 uM after 2 hrs by UV/LC-MS analysis; format: ADME
[4] = Drug uptake in cytoplasm of human U87 cells at 20 uM after 5 hrs by UV/LC-MS analysis; format: ADME
[5] = Half life in mouse plasma by UV/LC-MS analysis; format: ADME, cell-free
[6] = Metabolic stability in mouse liver microsomes assessed as unmetabolized compound remaining at 50 uM after 1 hr in presence of NADPH regenerating system by UV/LC-MS analysis; format: ADME, microsome; settings: read-out: Stability
[7] = Prodrug activation in human U87 cells assessed as N-(3-bromophenyl)-6-(methylthio)-1-(2-phenylpropyl)-1H-pyrazolo[3,4-d]pyrimidin-4-amine formation at 20 uM up to 25 hrs by UV/LC-MS analysis; format: cell-based; settings: u-87mg atcc
[8] = target: Tyrosine-protein kinase ABL1 (Homo sapiens, UniProt P00519)
Sequence of Tyrosine-protein kinase ABL1 (P00519 whole entry): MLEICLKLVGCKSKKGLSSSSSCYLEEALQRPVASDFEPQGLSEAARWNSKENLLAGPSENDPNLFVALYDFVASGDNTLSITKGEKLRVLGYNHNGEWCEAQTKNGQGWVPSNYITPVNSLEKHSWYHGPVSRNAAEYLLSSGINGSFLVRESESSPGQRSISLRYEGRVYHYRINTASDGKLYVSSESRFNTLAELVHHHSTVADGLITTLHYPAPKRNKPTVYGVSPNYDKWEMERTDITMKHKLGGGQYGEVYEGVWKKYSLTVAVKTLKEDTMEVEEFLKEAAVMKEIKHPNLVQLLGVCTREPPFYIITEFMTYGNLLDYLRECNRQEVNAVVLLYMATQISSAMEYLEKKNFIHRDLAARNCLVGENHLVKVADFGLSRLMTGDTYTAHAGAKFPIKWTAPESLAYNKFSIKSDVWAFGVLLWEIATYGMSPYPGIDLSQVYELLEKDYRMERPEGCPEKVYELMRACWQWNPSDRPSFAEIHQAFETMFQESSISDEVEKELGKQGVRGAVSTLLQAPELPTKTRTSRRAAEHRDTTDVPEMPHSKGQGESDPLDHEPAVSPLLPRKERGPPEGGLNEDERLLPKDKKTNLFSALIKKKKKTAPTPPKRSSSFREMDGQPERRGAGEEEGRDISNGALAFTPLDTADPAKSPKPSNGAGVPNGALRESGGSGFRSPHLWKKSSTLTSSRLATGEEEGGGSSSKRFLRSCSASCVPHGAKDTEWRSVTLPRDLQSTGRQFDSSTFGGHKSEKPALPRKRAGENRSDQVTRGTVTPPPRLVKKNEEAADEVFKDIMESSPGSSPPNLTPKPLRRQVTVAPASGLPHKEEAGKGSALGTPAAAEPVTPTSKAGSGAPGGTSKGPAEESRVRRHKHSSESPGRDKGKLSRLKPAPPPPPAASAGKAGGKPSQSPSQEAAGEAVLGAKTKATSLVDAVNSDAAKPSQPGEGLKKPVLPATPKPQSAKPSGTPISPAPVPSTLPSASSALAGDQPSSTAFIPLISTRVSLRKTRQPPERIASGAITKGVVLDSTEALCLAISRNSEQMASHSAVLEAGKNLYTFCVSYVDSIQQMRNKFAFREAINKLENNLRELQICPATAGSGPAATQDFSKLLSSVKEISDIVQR
Description: Inhibition of human wild type full length N-terminal GST/6His-tagged ABL (P118 to S535 residues) expressed in Sf9 cells using abltide as substrate after 5 mins in presence of [gamma-32P]ATP by scintillation counting

[9] = cells; settings: Homo sapiens, U-87 MG, 24 h
Description: Cytotoxicity against human U87 cells assessed as reduction in cell viability after 24 hrs by trypan blue assay

[10] = cells; settings: Homo sapiens, U-87 MG, 48 h
Description: Cytotoxicity against human U87 cells assessed as reduction in cell viability after 48 hrs by trypan blue assay

[11] = cells; settings: Homo sapiens, U-87 MG, 72 h
Description: Cytotoxicity against human U87 cells assessed as reduction in cell viability after 72 hrs by trypan blue assay

[12] = physchem; settings: PAMPA
Description: Apparent permeability at 500 uM after 5 hrs by Blood-Brain Barrier-based PAMPA

[13] = physchem; settings: aqueous
Description: Aqueous solubility of compound at 1 mg after 24 hrs by UV/LC-MS analysis

[14] = target: Proto-oncogene tyrosine-protein kinase Src (Homo sapiens, UniProt P12931); experiment: biochemical
Sequence of Proto-oncogene tyrosine-protein kinase Src (P12931 2-536 limits assumed): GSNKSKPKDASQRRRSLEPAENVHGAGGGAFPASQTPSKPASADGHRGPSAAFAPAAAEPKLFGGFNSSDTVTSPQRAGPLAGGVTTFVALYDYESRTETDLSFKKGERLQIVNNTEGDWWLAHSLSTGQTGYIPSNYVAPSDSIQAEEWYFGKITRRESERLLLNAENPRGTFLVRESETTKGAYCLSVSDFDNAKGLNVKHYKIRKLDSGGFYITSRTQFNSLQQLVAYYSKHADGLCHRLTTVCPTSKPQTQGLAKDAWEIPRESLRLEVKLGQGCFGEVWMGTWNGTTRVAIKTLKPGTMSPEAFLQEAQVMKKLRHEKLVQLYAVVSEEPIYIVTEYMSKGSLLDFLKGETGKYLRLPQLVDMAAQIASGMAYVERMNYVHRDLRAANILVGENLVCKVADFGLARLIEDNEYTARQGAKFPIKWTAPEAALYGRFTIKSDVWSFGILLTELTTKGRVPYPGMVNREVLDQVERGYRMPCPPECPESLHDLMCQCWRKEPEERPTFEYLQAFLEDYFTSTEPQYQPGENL
Description: Inhibition of human wild type full length N-terminal GST/6His-tagged SRC (M1 to L536 residues) expressed in baculovirus infected Sf9 cells using src peptide as substrate after 5 mins in presence of [gamma-32P]ATP by scintillation counting method

[15] = Antitumor activity against human U87 cells xenografted in nude immunodeficient CD1 mouse assessed as mean survival time at 50 mg/kg, po administered every other day (reference value: 30 day); format: functional, U-87MG ATCC
[16] = system: Mus musculus; experiment: MRT in BALB/C mouse assessed as N-(3-bromophenyl)-1-(2-chloro-2-phenylethyl)-6-(2-morpholinoethylthio)-1H-pyrazolo[3,4-d]pyrimidin-4-amine level at 50 mg/kg administered through oral gavage as methylcellulose formulation measured at 1 to 24 hrs post dose by UV/LC-MS analysis; format: ADME, organism-based; settings: in vivo
[17] = system: Mus musculus; experiment: Tmax in BALB/C mouse assessed as N-(3-bromophenyl)-1-(2-chloro-2-phenylethyl)-6-(2-morpholinoethylthio)-1H-pyrazolo[3,4-d]pyrimidin-4-amine level at 50 mg/kg administered through oral gavage as methylcellulose formulation measured at 1 to 24 hrs post dose by UV/LC-MS analysis; format: ADME, organism-based; settings: in vivo
[18] = Metabolic stability in human liver microsomes assessed as parent compound remaining at 50 uM after 1 hr in presence of NADPH regenerating system by UV/LC-MS analysis; format: ADME, microsome; settings: read-out: Stability
[19] = Plasma concentration in BALB/C mouse at 50 mg/kg, ip via bolus administration measured at 24 hrs post dose by UV/LC-MS; format: ADME, organism-based
[20] = system: Brain; experiment: Drug uptake in BALB/C mouse brain at 50 mg/kg, ip via bolus administration measured at 24 hrs post dose by UV/LC-MS analysis; format: ADME, organism-based; settings: in vivo
[21] = Cmax in BALB/C mouse at 50 mg/kg, ip administered via bolus dose using DMSO formulation measured at 1 to 24 hrs post dose by UV/LC-MS analysis; format: ADME, organism-based; design: dose 50 mg/kg, route intraperitoneal; settings: in vivo
[22] = Tmax in BALB/C mouse at 50 mg/kg, ip administered via bolus dose using DMSO formulation measured at 1 to 24 hrs post dose by UV/LC-MS analysis; format: ADME, organism-based; settings: in vivo
[23] = MRT in BALB/C mouse at 50 mg/kg, ip administered via bolus dose using DMSO formulation measured at 1 to 24 hrs post dose by UV/LC-MS analysis; format: ADME, organism-based; settings: in vivo
[24] = AUC (0 to infinity) in BALB/C mouse at 50 mg/kg, ip administered via bolus dose using DMSO formulation measured at 1 to 24 hrs post dose by UV/LC-MS analysis; format: ADME, organism-based; design: dose 50 mg/kg, time infinity, route intraperitoneal; settings: in vivo
[25] = AUC (0 to 24 hrs) in BALB/C mouse at 50 mg/kg, ip administered via bolus dose using DMSO formulation measured at 1 to 24 hrs post dose by UV/LC-MS analysis; format: ADME, organism-based; design: dose 50 mg/kg, time < 24 hr, route intraperitoneal; settings: in vivo
[26] = Plasma clearance in BALB/C mouse at 50 mg/kg, ip administered via bolus dose using DMSO formulation measured at 1 to 24 hrs post dose by UV/LC-MS analysis; format: ADME, organism-based
[27] = Half life in BALB/C mouse at 50 mg/kg, ip administered via bolus dose using DMSO formulation measured at 1 to 24 hrs post dose by UV/LC-MS analysis; format: ADME, organism-based; settings: in vivo
[28] = system: Mus musculus; experiment: Cmax in BALB/C mouse assessed as N-(3-bromophenyl)-1-(2-chloro-2-phenylethyl)-6-(2-morpholinoethylthio)-1H-pyrazolo[3,4-d]pyrimidin-4-amine level at 50 mg/kg, ip administered via bolus dose using DMSO formulation measured at 1 to 24 hrs post dose by UV/LC-MS analysis; format: ADME, organism-based; design: dose 50 mg/kg, route intraperitoneal; settings: in vivo
[29] = system: Mus musculus; experiment: Tmax in BALB/C mouse assessed as N-(3-bromophenyl)-1-(2-chloro-2-phenylethyl)-6-(2-morpholinoethylthio)-1H-pyrazolo[3,4-d]pyrimidin-4-amine level at 50 mg/kg, ip administered via bolus dose using DMSO formulation measured at 1 to 24 hrs post dose by UV/LC-MS analysis; format: ADME, organism-based; settings: in vivo
[30] = system: Mus musculus; experiment: MRT in BALB/C mouse assessed as N-(3-bromophenyl)-1-(2-chloro-2-phenylethyl)-6-(2-morpholinoethylthio)-1H-pyrazolo[3,4-d]pyrimidin-4-amine level at 50 mg/kg, ip administered via bolus dose using DMSO formulation measured at 1 to 24 hrs post dose by UV/LC-MS analysis; format: ADME, organism-based; settings: in vivo
[31] = system: Mus musculus; experiment: AUC (0 to infinity) in BALB/C mouse assessed as N-(3-bromophenyl)-1-(2-chloro-2-phenylethyl)-6-(2-morpholinoethylthio)-1H-pyrazolo[3,4-d]pyrimidin-4-amine level at 50 mg/kg, ip administered via bolus dose using DMSO formulation measured at 1 to 24 hrs post dose by UV/LC-MS analysis; format: ADME, organism-based; design: dose 50 mg/kg, time infinity, route intraperitoneal; settings: in vivo
[32] = system: Mus musculus; experiment: AUC (0 to 24 hrs) in BALB/C mouse assessed as N-(3-bromophenyl)-1-(2-chloro-2-phenylethyl)-6-(2-morpholinoethylthio)-1H-pyrazolo[3,4-d]pyrimidin-4-amine level at 50 mg/kg, ip administered via bolus dose using DMSO formulation measured at 1 to 24 hrs post dose by UV/LC-MS analysis; format: ADME, organism-based; design: dose 50 mg/kg, time < 24 hr, route intraperitoneal; settings: in vivo
[33] = system: Mus musculus; experiment: Plasma clearance in BALB/C mouse assessed as N-(3-bromophenyl)-1-(2-chloro-2-phenylethyl)-6-(2-morpholinoethylthio)-1H-pyrazolo[3,4-d]pyrimidin-4-amine level at 50 mg/kg, ip administered via bolus dose using DMSO formulation measured at 1 to 24 hrs post dose by UV/LC-MS analysis; format: ADME, organism-based; settings: in vivo
[34] = system: Mus musculus; experiment: Half life in BALB/C mouse assessed as N-(3-bromophenyl)-1-(2-chloro-2-phenylethyl)-6-(2-morpholinoethylthio)-1H-pyrazolo[3,4-d]pyrimidin-4-amine level at 50 mg/kg, ip administered via bolus dose using DMSO formulation measured at 1 to 24 hrs post dose by UV/LC-MS analysis; format: ADME, organism-based; settings: in vivo
[35] = system: Mus musculus; experiment: Cmax in BALB/C mouse assessed as N-(3-bromophenyl)-1-(2-chloro-2-phenylethyl)-6-(2-morpholinoethylthio)-1H-pyrazolo[3,4-d]pyrimidin-4-amine level at 50 mg/kg administered through oral gavage as methylcellulose formulation measured at 1 to 24 hrs post dose by UV/LC-MS analysis; format: ADME, organism-based; design: dose 50 mg/kg, route oral; settings: in vivo
[36] = system: Mus musculus; experiment: AUC (0 to infinity) in BALB/C mouse assessed as N-(3-bromophenyl)-1-(2-chloro-2-phenylethyl)-6-(2-morpholinoethylthio)-1H-pyrazolo[3,4-d]pyrimidin-4-amine level at 50 mg/kg administered through oral gavage as methylcellulose formulation measured at 1 to 24 hrs post dose by UV/LC-MS analysis; format: ADME, organism-based; design: dose 50 mg/kg, route oral, time infinity; settings: in vivo
[37] = system: Mus musculus; experiment: AUC (0 to 24 hrs) in BALB/C mouse assessed as N-(3-bromophenyl)-1-(2-chloro-2-phenylethyl)-6-(2-morpholinoethylthio)-1H-pyrazolo[3,4-d]pyrimidin-4-amine level at 50 mg/kg administered through oral gavage as methylcellulose formulation measured at 1 to 24 hrs post dose by UV/LC-MS analysis; format: ADME, organism-based; design: dose 50 mg/kg, time < 24 hr, route oral; settings: in vivo
[38] = system: Mus musculus; experiment: Plasma clearance in BALB/C mouse assessed as N-(3-bromophenyl)-1-(2-chloro-2-phenylethyl)-6-(2-morpholinoethylthio)-1H-pyrazolo[3,4-d]pyrimidin-4-amine level at 50 mg/kg administered through oral gavage as methylcellulose formulation measured at 1 to 24 hrs post dose by UV/LC-MS analysis; format: ADME, organism-based; settings: in vivo
[39] = system: Mus musculus; experiment: Half life in BALB/C mouse assessed as N-(3-bromophenyl)-1-(2-chloro-2-phenylethyl)-6-(2-morpholinoethylthio)-1H-pyrazolo[3,4-d]pyrimidin-4-amine level at 50 mg/kg administered through oral gavage as methylcellulose formulation measured at 1 to 24 hrs post dose by UV/LC-MS analysis; format: ADME, organism-based; settings: in vivo
[40] = system: Kidney; experiment: Drug uptake in BALB/C mouse kidney at 50 mg/kg, ip via bolus administration measured at 24 hrs post dose by UV/LC-MS; format: ADME, organism-based; settings: in vivo
[41] = Drug uptake in BALB/C mouse adipose tissue at 50 mg/kg, ip via bolus administration measured at 24 hrs post dose by UV/LC-MS; format: ADME, organism-based; settings: in vivo
[42] = system: Liver; experiment: Drug uptake in BALB/C mouse liver at 50 mg/kg, ip via bolus administration measured at 24 hrs post dose by UV/LC-MS; format: ADME, organism-based; settings: in vivo

CSc1nc(N(C(=O)OCCN2CCN(C)CC2)c2cccc(Br)c2)c2cnn(CC(C)c3ccccc3)c2n1 (stereo not drawn)
half-life at 100 µM [1]: > 48 h | half-life at 100 µM [2]: > 48 h | Drug uptake [3]: Active | Drug uptake [4]: Active | half-life [5]: 2 h | remaining at 1 h, 50 µM [6]: 93.3% | Drug metabolism [7]: Metabolite_Detected | Ki [8]: > 100 µM | IC50 [9]: 7.3 µM | IC50 [10]: 2.2 µM | IC50 [11]: 1.57 µM | Papp at 5 h, 500 µM [12]: 1.89 ×10⁻⁶ cm/s | solubility at 24 h [13]: 6.47 µg/mL (≈ 10.4 µM) | Ki [14]: > 100 µM

ClC(Cn1ncc2c(Nc3cccc(Br)c3)nc(SCCN3CCOCC3)nc21)c1ccccc1 (stereo not drawn)
MST [15]: 44 days | MRT [16]: 11.97 h | Tmax [17]: 2 h | remaining at 1 h, 50 µM [18]: 97.2% | remaining at 1 h, 50 µM [6]: 89.2% | concentration at 24 h [19]: 2.6 µM | Drug uptake [20]: 2.7 nmol/g | Cmax [21]: 6.83 µM | Tmax [22]: 0.5 h | MRT [23]: 19.1 h | AUC(0-inf) [24]: 79.7 µM·h | AUC(0-t) at 24 h [25]: 56.1 µM·h | CL/F [26]: 0.46 mL/min | half-life [27]: 14.8 h | Cmax [28]: 6.07 µM | Tmax [29]: 1.5 h | MRT [30]: 46.62 h | AUC [31]: 135.11 µM·h | AUC [32]: 55.14 µM·h | CL [33]: 0.27 mL/min | t1/2 [34]: 33.3 h | Cmax [35]: 5.35 µM | AUC [36]: 43.53 µM·h | AUC [37]: 36.69 µM·h | CL [38]: 1.14 mL/min | t1/2 [39]: 9.06 h | Drug uptake [40]: 3.6 nmol/g | Drug uptake [41]: 51.2 nmol/g | Drug uptake [42]: 1.7 nmol/g | IC50 [9]: 17.3 µM | IC50 [10]: 6.8 µM | IC50 [11]: 1.9 µM | Papp at 5 h, 500 µM [12]: 7.1 ×10⁻⁶ cm/s | solubility at 24 h [13]: 3.7 µg/mL (≈ 6.45 µM)
